In patent publication US5229364A, “Polypeptides derived from the human immunodeficiency virus endonuclease protein” (priority 1991, dated 1993):

Tests used:
[1] = test system: HIV-1 antibody positive sera; assay: Peptide ELISA with HIV-1 antibody positive sera; assay type: binding, human; settings: 33 HIV-1 antibody positive sera diluted 1/100; peptide 1 μg/well; absorbance 490 nm; positive = above mean of negative sera plus three S.D.
Protocol: FIG. 1 illustrates the reactivity of sera from HIV-1 infected and non-infected individuals to selected HIV-1 endonuclease peptides. Thirty-three HIV-1 antibody positive sera (filled symbols) and fourteen control sera (open symbols) were analyzed in ELISA with peptides representing the HIV-1 endonuclease protein (6). Amino acid sequences were derived from the HIV-1 consensus sequence and are shown at the bottom of the picture (abscissa). Uppercase letters indicate consensus amino acids, whereas less conserved amino acids are indicated with lowercase letters. Absorbance values at 490 nm are indicated in the ordinate. Three of the sera belonged to infected individuals classified as CDC 1 (7), thirteen to CDCII, seven to CDC III and ten to CDC IV. Becaused reactivity to other regions than the one represented by End 10 was very low, only results of a selected number of peptides is shown in the figure. FIG. 2 illustrates the reactivity of HIV-1 antobidy positive and control sera to an End 10 set of 18 glycine (G) substitution peptides. Filled symbols show mean optical density for 13 antibody positive sera. The corresponding values for four negative sera are shown by open symbols. Vertical bars represent standard deviation values. The mean reactivity to intact peptide End 10 was chosen to represent 100% of activity and reactivity to the substituted peptides is expressed in relation to this. […]

[2] = test system: sera obtained from HIV-2 infected individuals; assay: Peptide ELISA with sera from HIV-2 infected individuals; assay type: binding, human; settings: data not shown
Protocol: The peptide ELISA was performed as follows. Microtiter plate wells (Linbro, Flow, Scotland) were coated with peptide (1 μg/well) resuspended in 0.01 M carbonate buffer at room temperature overnight. Thereafter, the plates wells were blocked with 5% bovine serum albumin. 100 μl of reagents were used per well. Five washings (0.9% NaCl and 0.005% Tween 20 in distilled water) were performed between the different steps of the ELISA procedure. Positive sera and controls were diluted 1/100 and incubated in the plates for one hour at 37° C. Peroxidase conjugated immunoglobulins to human IgG y-chains (Dakopatts; Denmark) diluted 1/2000 were added (1 hour, 37° C.). 1,2 phenylene diaminedihydrochloride was used as substrate. The reaction was allowed to continue for ten minutes and then stopped with 3 M H2 SO4. […] The mean optic density plus three times S.D. for peptide End 10 was 0.8.
The corresponding region in the genome of HIV-2 (Table 1) and simian immunodeficiency virus (SIV) is also very conserved. […] Some amino-acid stretches are, however, completely conserved among the different serotypes. Because of this observation, the HIV-1 peptide End 10 was also tested with 30 sera obtained from HIV-2 infected individuals.

## ETGQETAYFLLKLAGRWPVK [End 10, 20-residue peptide of HIV-1 endonuclease, starting at position 655 of the pol consensus]
[1]
  reactivity in ELISA with HIV-1 antibody positive sera: reacted strongly
[2]; 30 HIV-2 sera
  intensity of the reactions with HIV-2 sera relative to HIV-1 sera: comparable
[2]; 30 sera from HIV-2 infected individuals
  reactivity in ELISA with HIV-2 sera: reacted strongly
